In patent publication US8574563B2 (Bristol-Myers Squibb Company, priority 2006, dated 2013):

These molecules were tested on HCV 1b-377-neo replicon cells (assay: HCV replicon assay, HCV 1b-377-neo replicon cells (1b FRET)). Conditions: HCV 1b-377-neo replicon cells; HCV 1b genotype.
Assay type: cell-based, Hepatitis C virus genotype 1b
How it was run: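 Compounds tested in HCV genotype 1b-377-neo replicon cells with a FRET read-out. Cells resistant to a reference NS5A inhibitor through a Y2065H NS5A mutation were run alongside wild-type cells.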
For `COC(=O)N[C@@H](C(=O)N1CCC[C@@H]1c1ncc(-c2ccc(-c3ccc(-c4cnc([C@H]5CCCN5C(=O)[C@H](NC(=O)OC)C5CC5)[nH]4)cc3)cc2)[nH]1)C1CC1` [Example M29], the “EC50 range against HCV 1b (Table 2, Range)” value was “>A”.

Same assay, conditions: HCV 1b-377-neo replicon cells; HCV 1b genotype; read-out: EC50 range against HCV 1b (Table 2, Range)
With `CCN(CC)[C@@H](C(=O)N1CCC[C@H]1c1ncc(-c2ccc(-c3ccc(-c4cnc([C@@H]5CCCN5C(=O)C5(NC(=O)OC)CCC5)[nH]4)cc3)cc2)[nH]1)c1ccccc1` [Example M41, methyl (1-(((2S)-2-(5-(4′-(2-((2S)-1-((2R)-2-(diethylamino)-2-phenylacetyl)-2-pyrrolidinyl)-1H-imidazol-5-yl)-4-biphenylyl)-1H-imidazol-2-yl)-1-pyrrolidinyl)carbonyl)cyclobutyl) carbamate] the EC50 was 1 to 99 nM.

Same assay, conditions: Hepatitis C virus, HCV 1b-377-neo replicon cells; HCV 1b genotype; read-out: EC50 range against HCV 1b (Table 2, Range)
`COC(=O)N[C@@H](CC(=O)N1CCN(C)CC1)C(=O)N1CCC[C@H]1c1ncc(-c2ccc(-c3ccc(-c4cnc([C@@H]5CCCN5C(=O)[C@@H](NC(=O)OC)C(C)C)[nH]4)cc3)cc2)[nH]1` [Example M112, methyl ((1S)-1-(((2S)-2-(5-(4′-(2-((2S)-1-((2S)-2-((methoxycarbonyl)amino)-4-(4-methyl-1-piperazinyl)-4-oxobutanoyl)-2-pyrrolidinyl)-1H-imidazol-5-yl)-4-biphenylyl)-1H-imidazol-2-yl)-1-pyrrolidinyl)carbonyl)-2-methylpropyl)carbamate] gave an EC50 of 1 to 99 nM. `CCS(=O)(=O)N[C@H](C(=O)N1CCC[C@H]1c1nc(-c2ccc(-c3ccc(-c4c[nH]c([C@@H]5CCCN5C(=O)[C@@H](NS(=O)(=O)CC)C(C)C)n4)cc3)cc2)c[nH]1)C(C)C` [Example F67, N-((1S)-1-(((2S)-2-(4-(4′-(2-((2S)-1-((2S)-2-((ethylsulfonyl)amino)-3-methylbutanoyl)-2-pyrrolidinyl)-1H-imidazol-4-yl)-4-biphenylyl)-1H-imidazol-2-yl)-1-pyrrolidinyl)carbonyl)-2-methylpropyl)ethanesulfonamide] showed an EC50 of 1 to 99 nM. `COC(=O)N[C@@H](C(=O)N[C@@H](C)c1ncc(-c2ccc(-c3ccc(-c4cnc([C@H](C)NC(=O)[C@H](NC(=O)OC)c5ccccc5)[nH]4)cn3)nc2)[nH]1)c1ccccc1` [Example 153c-7, dimethyl (2,2′-bipyridine-5,5′-diylbis(1H-imidazole-5,2-diyl(1S)-1,1-ethanediylimino((1R)-2-oxo-1-phenyl-2,1-ethanediyl)))biscarbamate] showed an EC50 of 1 to 99 nM. Molecule `COC(=O)N[C@@H](C(=O)N1CCC[C@H]1c1ncc(-c2ccc(-c3ccc(-c4cnc([C@@H]5CCCN5C(=O)C5CCN(C(=O)OC(C)(C)C)CC5)[nH]4)cc3)cc2)[nH]1)c1ccccc1` [Example 84-36, tert-butyl 4-(((2S)-2-(5-(4′-(2-((2S)-1-((2R)-2-((methoxycarbonyl)amino)-2-phenylacetyl)-2-pyrrolidinyl)-1H-imidazol-5-yl)-4-biphenylyl)-1H-imidazol-2-yl)-1-pyrrolidinyl)carbonyl)-1-piperidinecarboxylate] has an EC50 of 0.001 to 0.999 nM. Molecule `COC(=O)N[C@@H](C(=O)N1CCC[C@H]1c1ncc(-c2ccc(-c3ccc(-c4cnc([C@@H]5CCCN5C(=O)C(c5ccc6sc(C)nc6c5)N(C)C)[nH]4)cc3)cc2)[nH]1)c1ccccc1` (stereo partly drawn) [Example 84-53, methyl ((1R)-2-((2S)-2-(5-(4′-(2-((2S)-1-((dimethylamino)(2-methyl-1,3-benzothiazol-5-yl)acetyl)-2-pyrrolidinyl)-1H-imidazol-5-yl)-4-biphenylyl)-1H-imidazol-2-yl)-1-pyrrolidinyl)-2-oxo-1-phenylethyl)carbamate] has an EC50 of 0.001 to 0.999 nM. `COC(=O)N[C@@H](C(=O)N1CCC[C@H]1c1ncc(-c2ccc(-c3ccc(-c4cnc([C@@H]5CCCN5C(=O)CNC(C)=O)[nH]4)cc3)cc2)[nH]1)c1ccccc1` [Example 41, methyl ((1R)-2-((2S)-2-(5-(4′-(2-((2S)-1-(N-acetylglycyl)-2-pyrrolidinyl)-1H-imidazol-5-yl)-4-biphenylyl)-1H-imidazol-2-yl)-1-pyrrolidinyl)-2-oxo-1-phenylethyl)carbamate] gave an EC50 of 0.001 to 0.999 nM. `CN(C)[C@@H](C(=O)N1CCC[C@H]1c1ncc(-c2ccc(-c3ccc(-c4cnc([C@@H]5CCCN5C(=O)Cc5ccc(F)cc5)[nH]4)cc3)cc2)[nH]1)c1ccccc1` [Example 94-53, (1R)-2-((2S)-2-(5-(4′-(2-((2S)-1-((4-fluorophenyl)acetyl)-2-pyrrolidinyl)-1H-imidazol-5-yl)-4-biphenylyl)-1H-imidazol-2-yl)-1-pyrrolidinyl)-N,N-dimethyl-2-oxo-1-phenylethanamine] was tested, and the EC50 was 0.001 to 0.999 nM. With `O=C(N[C@@H](C(=O)N1CCC[C@H]1c1ncc(-c2ccc(-c3ccc(-c4cnc([C@@H]5CCCN5C(=O)[C@@H]5CCCO5)[nH]4)cc3)cc2)[nH]1)c1ccccc1)N1CCOCC1` [Example 111, N-((1R)-2-oxo-1-phenyl-2-((2S)-2-(5-(4′-(2-((2S)-1-((2S)-tetrahydro-2-furanylcarbonyl)-2-pyrrolidinyl)-1H-imidazol-5-yl)-4-biphenylyl)-1H-imidazol-2-yl)-1-pyrrolidinyl)ethyl)-4-morpholinecarboxamide] the EC50 was 0.001 to 0.999 nM. `O=C([C@@H]1CCN(Cc2ccccc2)C1)N1CCC[C@H]1c1ncc(-c2ccc(-c3ccc(-c4cnc([C@@H]5CCCN5C(=O)[C@@H](c5ccccc5)N5CCCCC5)[nH]4)cc3)cc2)[nH]1` [Example 107-17] was tested, and the EC50 was 0.001 to 0.999 nM. In the case of `COC(=O)N[C@@H](C(=O)N1CCC[C@H]1c1ncc(-c2ccc(-c3ccc(-c4cnc([C@@H]5CCCN5C(=O)[C@@H](c5ccccc5Cl)N(C)C)[nH]4)cc3)cc2)[nH]1)c1ccccc1` [Example 107-36, methyl ((1R)-2-((2S)-2-(5-(4′-(2-((2S)-1-(2R)-2-(2-chlorophenyl)-2-(dimethylamino)acetyl)-2-pyrrolidinyl)-1H-imidazol-5-yl)-4-biphenylyl)-1H-imidazol-2-yl)-1-pyrrolidinyl)-2-oxo-1-phenylethyl) carbamate], the EC50 is reported as 0.001 to 0.999 nM. For `O=C(N[C@@H](C(=O)N1CCC[C@H]1c1ncc(-c2ccc(-c3ccc(-c4cnc([C@@H]5CCCN5C(=O)[C@@H]5CCCO5)[nH]4)cc3)cc2)[nH]1)c1ccccc1)[C@H]1CCCO1` [Example 110, (2R)—N-((1R)-2-oxo-1-phenyl-2-((2S)-2-(5-(4′-(2-((2S)-1-((2S)-tetrahydro-2-furanylcarbonyl)-2-pyrrolidinyl)-1H-imidazol-5-yl)-4-biphenylyl)-1H-imidazol-2-yl)-1-pyrrolidinyl)ethyl)tetrahydro-2-furancarboxamide], the EC50 was 0.001 to 0.999 nM. In the case of `COC(=O)N[C@@H](C(=O)N1CC2(CC2)C[C@H]1c1nc(-c2ccc(-c3ccc(-c4c[nH]c([C@@H]5CC6(CC6)CN5C(=O)[C@H](NC(=O)OC)C(C)C)n4)cc3)cc2)c[nH]1)C(C)C` [Example M149, methyl ((1R)-1-(((6S)-6-(4-(4′-(2-((6S)-5-((2R)-2-((methoxycarbonyl)amino)-3-methylbutanoyl)-5-azaspiro[2.4]hept-6-yl)-1H-imidazol-4-yl)-4-biphenylyl)-1H-imidazol-2-yl)-5-azaspiro[2.4]hept-5-yl)carbonyl)-2-methylpropyl)carbamate], the EC50 is reported as 1 to 99 nM. `CO[C@@H](C(=O)N1CCC[C@H]1c1ncc(-c2ccc(-c3ccc(-c4cnc([C@@H]5CCCN5C(=O)[C@@H](c5ccccc5Cl)N(C)C)[nH]4)cc3)cc2)[nH]1)c1ccccc1` [Example 107-37, (1R)-1-(2-chlorophenyl)-2-((2S)-2-(5-(4′-(2-((2S)-1-((2R)-2-methoxy-2-phenylacetyl)-2-pyrrolidinyl)-1H-imidazol-5-yl)-4-biphenylyl)-1H-imidazol-2-yl)-1-pyrrolidinyl)-N,N-dimethyl-2-oxoethanamine] gave an EC50 of 0.001 to 0.999 nM.
